Results reported in patent US10633419B2, “Immunomodulators” (BRISTOL-MYERS SQUIBB COMPANY, priority 2014, dated 2020).
Starred links: 1 amine or outer side, 2 acyl side, 3 side chain; linkers in the order of their positions; H or OH if unused. Positions of bridges follow the written chain, without caps; N, C: chain ends. Non-standard residues stand in square brackets, D forms with d. Residues, ends and D or L forms follow the SMILES beside them. ξ: configuration not given here. *: point of attachment. X12 = O=C(O)CCCCCCCCCCCCCCCCCCC(=O)N[C@@H](CCC(=O)NCCCOCCOCCOCCCN*)C(=O)O; X4 = O=C(O)CCCCCCCCCCCCCCCCC(=O)N[C@@H](CC(=O)NCCCOCCOCCOCCCN*)C(=O)O; Trp(1-CH2COOH) = N[C@@H](Cc1cn(CC(=O)O)c2ccccc12)C(=O)O; X9 = O=C(O)CCCCCCCCCCCCCCCCC(=O)N[C@@H](CCN*)C(=O)O; Phe(3,4,5-F3) = N[C@@H](Cc1cc(F)c(F)c(F)c1)C(=O)O; βAsp = O=C(O)[C@H](CC(=O)[*:2])N[*:1]; ξPro(4R-OH) = O=C(O)C1C[C@@H](O)CN1; X16 = O=C([C@H]1COCCN1[*:1])[*:2]; Hyp = O=C(O)[C@@H]1C[C@@H](O)CN1; NMeF = CN[C@@H](Cc1ccccc1)C(=O)O; NMeNle = CCCC[C@H](NC)C(=O)O; Pip = O=C(O)[C@@H]1CCCCN1; NMeA = CN[C@@H](C)C(=O)O; Orn = NCCC[C@H](N)C(=O)O; Pra = C#CC[C@H](N)C(=O)O; Aun = NCCCCCCCCCCC(=O)O; Dab = NCC[C@H](N)C(=O)O; Dap = NC[C@H](N)C(=O)O

Target: T1, PD-L1 (Homo sapiens, UniProt Q9NZQ7)
T1 construct: hPDL1(19-239)-TVMV-His; made in house; host or cells: HEK293T
T1 sequence (Q9NZQ7 with tags, fused parts or gaps): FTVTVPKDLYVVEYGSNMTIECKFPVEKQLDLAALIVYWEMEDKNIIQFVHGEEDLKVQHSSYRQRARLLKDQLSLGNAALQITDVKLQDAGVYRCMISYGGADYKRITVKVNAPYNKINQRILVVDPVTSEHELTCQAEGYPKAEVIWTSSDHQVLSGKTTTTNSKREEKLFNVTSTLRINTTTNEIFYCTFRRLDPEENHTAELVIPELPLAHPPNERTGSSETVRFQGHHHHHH
Experiment: PD-1/PD-L1 Homogenous Time-Resolved Fluorescence (HTRF) binding assay (PD-1-Ig/PD-L1-His)
Details: inhibition of PD-1-Ig binding to PD-L1-TVMV-His; value given as range class; read-out: HTRF IC50
How it was run: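 Inhibitors pre-incubated 15 min with PD-L1-His (10 nM final), then PD-1-Ig (20 nM final) added for 15 min in dPBS/0.1% BSA/0.05% Tween-20. Eu-cryptate anti-Ig (1 nM) and APC anti-His (20 nM) added, 30 min equilibration, 665/620 nm HTRF ratio read.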

Row | Structure (SMILES) | IC50 [nM]
1 | C#CC[C@H](NC(=O)[C@@H]1CSCC(=O)N[C@@H](Cc2ccc(O)cc2)C(=O)N(C)[C@@H](C)C(=O)N[C@@H](CC(N)=O)C(=O)N2CCC[C@H]2C(=O)N[C@@H](CN)C(=O)N[C@@H](CC(C)C)C(=O)N2C[C@H](O)C[C@H]2C(=O)N[C@@H](Cc2c[nH]c3ccccc23)C(=O)N[C@@H](CCN)C(=O)N[C@@H](Cc2cn(CC(=O)O)c3ccccc23)C(=O)N(C)[C@@H](CCCC)C(=O)N(C)[C@@H](CCCC)C(=O)N[C@@H](CCC(=O)O)C(=O)N1)C(=O)O [INT130AG] ({CH2CO}-Y[NMeA]NP[Dap]L[Hyp]W[Dab][Trp(1-CH2COOH)][NMeNle][NMeNle]EC[Pra]-OH; thioether N-14) | 0.3 to 9.9
2 | CCCC[C@H]1C(=O)N(C)[C@@H](CCCC)C(=O)N[C@@H](CCC(=O)O)C(=O)N[C@H](C(=O)NCC(=O)N[C@@H](Cc2cn(CCOCCOCCOCCOCCOCCOCCOCCOCCOCCOCCOCCNC(=O)CC[C@H](NC(=O)CCCCCCCCCCCCCCCCC(=O)O)C(=O)O)nn2)C(=O)O)CSCC(=O)N[C@@H](Cc2ccc(O)cc2)C(=O)N2CCCC[C@H]2C(=O)N[C@@H](CC(N)=O)C(=O)N2CCC[C@H]2C(=O)N[C@@H](CN)C(=O)N[C@@H](CC(C)C)C(=O)N2C[C@H](O)C[C@H]2C(=O)N[C@@H](Cc2c[nH]c3ccccc23)C(=O)N[C@@H](CCN)C(=O)N[C@@H](Cc2cn(CC(=O)O)c3ccccc23)C(=O)N1C [Example 14106] | 100 to 1600
3 | CCCC[C@H]1C(=O)N(C)[C@@H](CCCC)C(=O)N[C@@H](CC(C)C)C(=O)N[C@H](C(=O)NCC(=O)N[C@@H](CC(=O)N2CCOC[C@@H]2C(=O)NCC[C@H](NC(=O)CCCCCCCCCCCCCCCCC(=O)O)C(=O)O)C(=O)O)CSCC(=O)N[C@@H](Cc2ccc(O)cc2)C(=O)N2CCCC[C@H]2C(=O)N[C@@H](CC(N)=O)C(=O)N2CCC[C@H]2C(=O)N[C@@H](CN)C(=O)N[C@@H](CC(C)C)C(=O)N2C[C@H](O)C[C@H]2C(=O)N[C@@H](Cc2c[nH]c3ccccc23)C(=O)N[C@@H](CCN)C(=O)N[C@@H](Cc2cn(CC(=O)O)c3ccccc23)C(=O)N1C [Example 13158] ({CH2CO}-Y[Pip]NP[Dap]L[Hyp]W[Dab][Trp(1-CH2COOH)][NMeNle][NMeNle]LCG[βAsp][X16]-X9; thioether N-14) | 0.3 to 9.9
4 | CCCC[C@H]1C(=O)N(C)[C@@H](CCCC)C(=O)N[C@@H](CC(C)C)C(=O)N[C@H](C(=O)NCC(=O)N[C@@H](CC(=O)O)C(=O)N[C@@H](CCC(=O)NCCCOCCOCCOCCCNC(=O)CC[C@H](NC(=O)CCCCCCCCCCCCCCCCCCC(=O)O)C(=O)O)C(=O)O)CSCC(=O)N[C@@H](Cc2ccc(O)cc2)C(=O)N(C)[C@@H](C)C(=O)N[C@@H](CC(N)=O)C(=O)N2CCC[C@H]2C(=O)N[C@@H](CN)C(=O)N[C@@H](CC(C)C)C(=O)N2C[C@H](O)CC2C(=O)N[C@@H](Cc2c[nH]c3ccccc23)C(=O)N[C@@H](CCN)C(=O)N[C@@H](Cc2cn(CC(=O)O)c3ccccc23)C(=O)N1C (stereo partly drawn) [Example 11249] ({CH2CO}-Y[NMeA]NP[Dap]L[ξPro(4R-OH)]W[Dab][Trp(1-CH2COOH)][NMeNle][NMeNle]LCGDE(X12)-OH; thioether N-14) | 0.3 to 9.9
5 | CCCC[C@H]1C(=O)N(C)[C@@H](CCCC)C(=O)N[C@@H](CCCNC(=N)N)C(=O)N[C@H](C(=O)NCC(=O)NCC(=O)NCC(=O)NCCCCCCCCCCC(=O)O)CSCC(=O)N[C@@H](Cc2ccc(O)cc2)C(=O)N(C)[C@@H](C)C(=O)N[C@@H](CC(=O)O)C(=O)N2CCC[C@H]2C(=O)N[C@@H](Cc2cnc[nH]2)C(=O)N[C@@H](CC(C)C)C(=O)N2C[C@H](O)C[C@H]2C(=O)N[C@@H](Cc2c[nH]c3ccccc23)C(=O)N[C@@H](CO)C(=O)N[C@@H](Cc2c[nH]c3ccccc23)C(=O)N1C [Example 11070] ({CH2CO}-Y[NMeA]DPHL[Hyp]WSW[NMeNle][NMeNle]RCGGG[Aun]-OH; thioether N-14) | 0.3 to 9.9
6 | C#CC[C@H](NC(=O)CNC(=O)[C@@H]1CSCC(=O)N[C@@H](Cc2cc(F)c(F)c(F)c2)C(=O)N(C)[C@@H](Cc2ccccc2)C(=O)N(C)[C@@H](CCCC)C(=O)N2CCC[C@@H]2C(=O)N[C@@H](CC(=O)O)C(=O)N[C@@H](C(C)C)C(=O)N(C)[C@@H](Cc2ccccc2)C(=O)N[C@@H](CCCN)C(=O)N2CCC[C@@H]2C(=O)N[C@@H](Cc2c[nH]c3ccccc23)C(=O)N[C@@H](Cc2ccc(O)cc2)C(=O)N[C@@H](CC(C)C)C(=O)N1)C(N)=O [INT 1400K, ClAc-F3Phe-mPhe-mNle-dPro-Asp-Val-mPhe-Orn-dPro-Trp-Tyr-Leu-Cys-Gly-[(S)-propargylglycine]] ({CH2CO}-[Phe(3,4,5-F3)][NMeF][NMeNle][dP]DV[NMeF][Orn][dP]WYLCG[Pra]-NH2; thioether N-13) | 0.3 to 9.9
7 | CCCC[C@H]1C(=O)N(C)[C@@H](CCCC)C(=O)N[C@@H](CC(C)C)C(=O)N[C@H](C(=O)NCCCOCCOCCOCCCNC(=O)C[C@H](NC(=O)CCCCCCCCCCCCCCCCC(=O)O)C(=O)O)CSCC(=O)N[C@@H](Cc2ccc(O)cc2)C(=O)N(C)[C@@H](C)C(=O)N[C@@H](CC(N)=O)C(=O)N2CCC[C@H]2C(=O)N[C@@H](CN)C(=O)N[C@@H](CC(C)C)C(=O)N2C[C@H](O)C[C@H]2C(=O)N[C@@H](Cc2c[nH]c3ccccc23)C(=O)N[C@@H](CCN)C(=O)N[C@@H](Cc2cn(CC(=O)O)c3ccccc23)C(=O)N1C [Example 11258] ({CH2CO}-Y[NMeA]NP[Dap]L[Hyp]W[Dab][Trp(1-CH2COOH)][NMeNle][NMeNle]LC-X4; thioether N-14) | 10 to 99
